{"source": "paper PMC10391610", "about": "“Survivin prevents the polycomb repressor complex 2 from methylating histone 3 lysine 27” (iScience, 2023)", "key": {"survivin": {"target": "T1, survivin (Homo sapiens, UniProt O15392)", "T1 construct": "transferred to the survivin1-142 construct used in the present study; His8 tag (pHIS8 vector, thrombin-cleavable); made in house; host or cells: E. coli BL21(DE3) star", "T1 sequence (O15392 whole entry)": "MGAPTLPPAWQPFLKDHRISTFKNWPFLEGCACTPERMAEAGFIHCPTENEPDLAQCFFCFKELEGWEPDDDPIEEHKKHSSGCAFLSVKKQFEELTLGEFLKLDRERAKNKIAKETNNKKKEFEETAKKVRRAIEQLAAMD", "experiment": "Biolayer interferometry, immobilized EZH2 peptide, survivin as analyte", "type": "binding", "protocol": "EZH2_178-211 peptide from previous peptide microarray experiments were used as immobilized ligands using amine reactive second-generation biosensor (AR2G, Fortebio, Fremont, CA, USA). Ethanolamine was used to quench unbound AR2G surface to prevent non-specific interactions. The biosensor was incubated in MQ water for 15 minutes before use in the Octet instrument (Fortebio, Fremont, CA, USA) with the following settings: equilibration in water for 60 s and 1000 rpm shaking, activation in EDC/s-NHS for 300 s at 1000 rpm, peptide immobilization in immobilization buffer pH 6.0 (Fortebio) for 900 s and 1000 rpm (50 μM for the peptide), quenching with 1 M ethanolamine for 300 s and 1000 rpm, baseline measurement in survivin SEC buffer for 600 s and 1000 rpm, association with survivin (100 nM, 33.3 nM, 11.1 nM, and 3.7 nM concentrations) as the experiment analyte for 600 s and 1000 rpm, and dissociation step in survivin SEC buffer for 1200 s and 1000 rpm. The assay was performed at 30°C. The reference wells and reference biosensors were subtracted.\nΔλ(t) values were converted to dimensionless quantities by dividing the wavelength shifts with 1 nm prior to the analysis. To develop the model, we tentatively assumed Langmuir’s 1:1 model.[85] The kinetic modelling was performed with the pymc3 python package[66] using a Bayesian model: p(KD,app|lower=10^−15,upper=10^−3)=1/upper−lower p(k−1|lower=10^−20,upper=10)=1/upper−lower k1=k−1/KD,app p(A|lower=10^−6,upper=10)=1/upper−lower p(ε|lower=10^−6,upper=1)=1/upper−lower p(Δλ(0)|μ=⟨Δλi⟩,σ=1/10∑(Δλi−⟨Δλi⟩)^2/n)=1/2πσe^−1/2σ(Δλ(t)−μ)^2;Δλ(0)∈[10^−20,+∞]\nThe association and dissociation phases were modelled simultaneously, and the probability of wavelength shift during association phase was modeled as: p(Δλ(t)|μ=Ac/KD,app+c(1−e^−(k1c+k−1)t),σ=ε)=1/2πσe^−1/2σ(Δλ(t)−μ)^2\nThe probability of wavelength shift during the dissociation phase was modelled as: p(Δλ(t)|μ=Δλ(0)e^−k−1t,σ=ε)=1/2πσe^−1/2σ(Δλ(t)−μ)^2, where A and k1 are the amplitude and rate constant of the exponential association process, respectively. The concentration of the analyte is c and KD,app is the apparent dissociation constant. The dissociation rate constant is marked with k-1. ε represents the standard deviation of Δλ(t) . The total amplitude of wavelength shift is the wavelength shift at the beginning of the dissociation phase ( Δλ(0) ). Its prior distribution is modeled by a truncated normal distribution with parameters based on an empirical Bayes estimate of the starting observations. The data points in the interval 0 to 1 s are represented by the index i. The residual plots from the Bayesian model used in the BLI experiment with peptide EZH2_172-211 and survivin are shown in Figure S6."}, "[U-15N]-survivin": {"target": "T2, [U-15N]-survivin (Homo sapiens, UniProt O15392)", "T2 construct": "transferred to the survivin1-142 construct used in the present study; His8 tag (pHIS8 vector, thrombin-cleavable); made in house; host or cells: E. coli BL21(DE3) star, M9 medium with 15NH4Cl", "T2 sequence (O15392 whole entry)": "as above", "experiment": "NMR titration of [U-15N]-survivin with PRC2-derived peptides", "type": "binding", "protocol": "Uniformly [U] labeled [U-^15N] survivin was produced in H2O-based M9 medium[69] containing ^15NH4Cl as the sole nitrogen and in case of or [U-^15N,^13C] survivin D-(^13C)-glucose was additionally added as the sole carbon source, respectively (Sigma-Aldrich). Expression was induced with 0.5 mM IPTG and continued for 20–22 h at 15°C. Cell harvesting and subsequent purification followed the same protocol as for unlabeled survivin.\nNMR measurements were performed on Bruker (Fällanden, Switzerland) AvanceIII 800 MHz spectrometers running Topspin 3.5 or 3.6, respectively, equipped with cryogenically cooled triple resonance probes. All NMR experiments were performed in NMR buffer (50 mM Tris, 150 mM NaCl, 1 mM DTT, pH 7.5) and at 298 K. The sequence-specific backbone assignment of survivin1-117 was taken from previously published assignment,[50] and transferred to the survivin1-142 construct used in the present study. Existing resonance assignments were confirmed, and additional resonances were assigned in a sequence-specific manner by the following experiments: [^1H,^15N]-TROSY HSQC,[70] BEST-TROSY-type HNCA and HNCO experiments.[71]\nThe peptides were synthetized and purified to 95% by Biomatik. The peptides were titrated into ^15N labelled survivin (0.3 mM). Standard 2D [^15N,^1H]-SOFAST-HMQC[72] experiments were recorded with inter-scan delays of 200 ms and 1025 x 256 complex points for the ^1H and ^15N dimensions, respectively, for the titrations of the different peptides with [U-^15N] survivin.\nFor the global analysis, the NMR signal strength was quantified by summing the 200 highest values in each 2D NMR spectrum to ensure that all peaks corresponding to the different amino acid residues in survivin are potentially covered. The titration curve was modelled using a Bayesian machine learning approach using the python library pymc3.[66] The logistic function was chosen due to computational convenience. The most important parameter of this function was coined “critical peptide concentration (cpc)” and its logarithm was modelled using a uniform a priori distribution between −10 and 1. p(log10cpc|lower=−10,upper=1)=1/upper−lower\nThe modelling errors related to the choice of function affect the analysis of different peptides similarly. Therefore, the relative magnitude of cpc in comparison is more reliable than the absolute magnitude of cpc itself. The concentration values were converted to dimensionless quantities by dividing with 1 mM and the NMR signal intensity was normalized for the concentration range studied.\nA deterministic sigmoid (logistic) function was used to model signal decay as a function of peptide concentration. Additional a priori assumptions of the function parameters were the following: p(k|lower=−10,upper=10)=1/upper−lower p(L|lower=−3,upper=3)=1/upper−lower p(b|lower=−10,upper=10)=1/upper−lower\n1000 posterior samples were collected in four parallel chains using the No-U-Turn sampling algorithm (NUTS) after 2000 tuning steps/chain.[83] The default sampling parameters were used except for “target accept” parameter, which was increased to 0.95. For the final analysis the 1000 samples from the four chains were merged to yield 4000 samples."}}, "data": [{"sequence": "VELVNALGQYNDDDDDDDGD DPEEREEKQKDLEDHRDDKE [EZH2_172-211, PRC2-derived peptide, EZH2 residues 172–211, synthesized by Biomatik]", "values": [{"measurement": "BLI interaction (in words)", "setting": "survivin; EZH2_172-211-coated sensors, survivin 100, 33 and 11 nM", "result": "Survivin interacted with EZH2_172-211-coated sensors at concentrations of 100, 33, and 11 nM"}, {"measurement": "apparent dissociation constant (in words)", "setting": "survivin; summary of posterior parameters, when the apparent dissociation constant is well defined", "result": "nanomolar interaction"}, {"measurement": "A (amplitude of association)", "setting": "survivin; survivin 3.7 nM, posterior mean ± SD", "result": "0.18 ± 0.21", "unit": "nm"}, {"measurement": "A (amplitude of association)", "setting": "survivin; survivin 33 nM, posterior mean, SD 1.8×10-4", "result": 0.11, "unit": "nm"}, {"measurement": "A (amplitude of association)", "setting": "survivin; survivin 100 nM, posterior mean, SD 1.1×10-4", "result": 0.23, "unit": "nm"}, {"measurement": "critical peptide concentration", "setting": "[U-15N]-survivin; 300 μM survivin (monomer), pH 7.5, 298 K", "result": 2.1, "unit": "µM"}, {"measurement": "<L>", "setting": "[U-15N]-survivin; logistic function parameter L, posterior mean (Table S10)", "result": 0.68}, {"measurement": "<b>", "setting": "[U-15N]-survivin; logistic function parameter b, posterior mean (Table S10)", "result": 0.32}, {"measurement": "<k>", "setting": "[U-15N]-survivin; logistic function parameter k, posterior mean (Table S10)", "result": -1.04}, {"measurement": "binding strength from slow exchange regime (in words)", "setting": "[U-15N]-survivin; new resonances at high peptide concentrations, 298 K", "result": "strong binding in the low nanomolar range or below"}]}]}
